Test results as given in patent publication US6933260B2, “Avermectin B1 derivatives having an aminosulfonyloxy substituent in the 4′-position” (Syngenta Crop Protection, Inc., priority 2001, dated 2005).

Experiments:
Type in all cases: in vivo
Plutella xylostella = experiment: Action against Plutella xylostella caterpillars (spray on cabbage plants); conditions: 72 h, 12.5 ppm spray, caterpillars in the first stage, 3 days, read-out: percentage reduction in population and percentage reduction in feeding damage (% activity)
Description: Young cabbage plants are sprayed with an aqueous emulsion spray mixture comprising 12.5 ppm of test compound. After the spray-coating has dried, the cabbage plants are populated with 10 caterpillars of Plutella xylostella in the first stage and placed in a plastics container. Evaluation is made 3 days later. The percentage reduction in population and the percentage reduction in feeding damage (% activity) are determined by comparing the number of dead caterpillars and the feeding damage on the treated plants with that on the untreated plants.

Tetranychus urticae = experiment: Action against Tetranychus urticae (spray on bean plants); conditions: 144 h, 12.5 ppm spray, mixed population, 6 days at 25° C., read-out: percentage reduction in population (% activity)
Description: Young bean plants are populated with a mixed population of Tetranychus urticae and sprayed one day later with an aqueous emulsion spray mixture comprising 12.5 ppm of test compound. The plants are incubated for 6 days at 25° C. and subsequently evaluated. The percentage reduction in population (% activity) is determined by comparing the number of dead eggs, larvae and adults on the treated plants with that on untreated plants.

Spodoptera littoralis = experiment: Action against Spodoptera littoralis (foliar spray on soybean plants); conditions: 72 h, 12.5 ppm spray, caterpillars in the first stage, 3 days, read-out: percentage reduction in population and percentage reduction in feeding damage (% activity)
Description: Young soybean plants are sprayed with an aqueous emulsion spray mixture comprising 12.5 ppm of test compound and, after the spray-coating has dried, the plants are populated with 10 caterpillars of Spodoptera littoralis in the first stage and then placed in a plastics container. 3 days later, the percentage reduction in population and the percentage reduction in feeding damage (% activity) are determined by comparing the number of dead caterpillars and the feeding damage on the treated plants with that on untreated plants.

Diabrotica balteata = experiment: Action against Diabrotica balteata (spray on maize seedlings); conditions: 144 h, 12.5 ppm spray, larvae in the second stage, 6 days, read-out: percentage reduction in population (% activity)
Description: Maize seedlings are sprayed with an aqueous emulsion spray mixture comprising 12.5 ppm of the test compound and, after the spray-coating has dried, the maize seedlings are populated with 10 Diabrotica balteata larvae in the second stage and then placed in a plastics container. 6 days later, the percentage reduction in population (% activity) is determined by comparing the number of dead larvae on the treated plants with that on untreated plants.

Measured: inhibition at 12.5 ppm

CCC(C)[C@H]1O[C@]2(C=C[C@@H]1C)C[C@@H]1C[C@@H](C/C=C(\C)[C@@H](O[C@H]3C[C@H](OC)[C@@H](O[C@H]4C[C@H](OC)[C@@H](OS(N)(=O)=O)[C@H](C)O4)[C@H](C)O3)[C@@H](C)/C=C/C=C3\CO[C@@H]4[C@H](O)C(C)=C[C@@H](C(=O)O1)[C@]34O)O2 (some centres unmarked) [P.1, 4″-sulfamoyloxy-avermectin B1]
> 80%: all assays above

CCC(C)[C@H]1O[C@]2(C=C[C@@H]1C)C[C@@H]1C[C@@H](C/C=C(\C)[C@@H](O[C@H]3C[C@H](OC)[C@@H](O[C@H]4C[C@H](OC)[C@@H](OS(=O)(=O)N(C)C)[C@H](C)O4)[C@H](C)O3)[C@@H](C)/C=C/C=C3\CO[C@@H]4[C@H](O)C(C)=C[C@@H](C(=O)O1)[C@]34O)O2 (some centres unmarked) [P.7, 4″-dimethylaminosulfonyloxy-avermectin B1]
> 80%: Plutella xylostella | Tetranychus urticae | Diabrotica balteata

CCC(C)[C@H]1O[C@]2(C=C[C@@H]1C)C[C@@H]1C[C@@H](C/C=C(\C)[C@@H](O[C@H]3C[C@H](OC)[C@@H](O[C@H]4C[C@H](OC)[C@@H](OS(=O)(=O)NC)[C@H](C)O4)[C@H](C)O3)[C@@H](C)/C=C/C=C3\CO[C@@H]4[C@H](O)C(C)=C[C@@H](C(=O)O1)[C@]34O)O2 (some centres unmarked) [P.2, 4″-methylaminosulfonyloxy-avermectin B1]
> 80%: all assays above

CCNS(=O)(=O)O[C@H]1[C@H](C)O[C@@H](O[C@H]2[C@H](C)O[C@@H](O[C@@H]3/C(C)=C/C[C@@H]4C[C@@H](C[C@]5(C=C[C@H](C)[C@@H](C(C)CC)O5)O4)OC(=O)[C@@H]4C=C(C)[C@@H](O)[C@H]5OC/C(=C\C=C\[C@@H]3C)[C@]54O)C[C@@H]2OC)C[C@@H]1OC (some centres unmarked) [P.3, 4″-ethylaminosulfonyloxy-avermectin B1]
> 80%: Plutella xylostella | Tetranychus urticae | Diabrotica balteata
